Some test systems named below: SF-268 CNS; NCI-H522 lung; LOX IMVI melanoma; RPMI-8226 leukemia; MALME-3M melanoma; OVCAR-5 ovarian; HCC-2998 colon; NCI/ADR-RES ovarian; SR leukemia; MDA-MB-435; NCI-H226 lung; KM12 colon; K-562 leukemia.
Holding throughout (assay): inhibition of tumour cell growth, NCI panel, 48 h

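Tested at 5 concentrations; 48 h exposure; 96-well plates; endpoints linearly interpolated, else capped at highest concentration. Definition used: TGI = concentration required for complete inhibition of growth.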 Bounds are passed on as bounds.

On to `Cc1ccc(/C=N/Nc2cc(C)c3cccc(C)c3n2)s1`, for which the TGI in the experiment with SF-268 CNS was 64.2 µM; in the experiment on NCI-H522 lung, 16.9 µM; in the experiment on LOX IMVI melanoma it was 4.3 µM; with RPMI-8226 leukemia, 67.4 µM; in the experiment with MALME-3M melanoma it was 33.1 µM; in the experiment on OVCAR-5 ovarian, 28.2 µM. For the same molecule, the TGI in the experiment on HCC-2998 colon is 22.7 µM; with NCI/ADR-RES ovarian, 22.5 µM; in the experiment with SR leukemia, over 100 µM; in the experiment with MDA-MB-435 it was 37.2 µM; in the experiment on NCI-H226 lung, 37.5 µM; with KM12 colon, 23.7 µM.

Consider `CCN(CC)Cc1ccc(C(=S)Nc2ccc(Cl)cc2)s1`, for which the TGI came to 30 µM in the experiment on SF-268 CNS; 25 µM with NCI-H522 lung; 16.2 µM in the experiment with LOX IMVI melanoma; 39.6 µM in the experiment on RPMI-8226 leukemia; 18.9 µM with K-562 leukemia; 23.7 µM with OVCAR-5 ovarian. In addition, the TGI with HCC-2998 colon is 26 µM; in the experiment on NCI/ADR-RES ovarian, 25 µM; in the experiment with SR leukemia, 24.7 µM; in the experiment with MDA-MB-435 it was 22.7 µM; with KM12 colon, 26.6 µM.

For the molecule `O=C1c2ccccc2C(=O)c2c(NCC(O)CO)ccc(NCC(O)CO)c21` (centres undefined), the TGI with SF-268 CNS, in the experiment with NCI-H522 lung, in the experiment on LOX IMVI melanoma, with RPMI-8226 leukemia, in the experiment on K-562 leukemia and in the experiment with MALME-3M melanoma was over 100 µM each time. The TGI in the experiment on OVCAR-5 ovarian, in the experiment on HCC-2998 colon, with NCI/ADR-RES ovarian, in the experiment with SR leukemia, in the experiment with MDA-MB-435 and with NCI-H226 lung was over 100 µM throughout.

As for `O=c1[nH]nnc2c1sc1ncccc12`, the TGI in the experiment on SF-268 CNS, with NCI-H522 lung, in the experiment with LOX IMVI melanoma, in the experiment with K-562 leukemia, in the experiment with MALME-3M melanoma and in the experiment on OVCAR-5 ovarian was over 100 µM each time. The TGI in the experiment with HCC-2998 colon, with NCI/ADR-RES ovarian, in the experiment on SR leukemia, in the experiment with MDA-MB-435, with NCI-H226 lung and in the experiment on KM12 colon was over 100 µM throughout.

For the molecule `N#C[C@H](c1ccccn1)c1nc2ccccc2nc1Cl`, the TGI with NCI-H522 lung, with RPMI-8226 leukemia, with MALME-3M melanoma, in the experiment with OVCAR-5 ovarian, in the experiment on HCC-2998 colon and in the experiment with NCI/ADR-RES ovarian was over 100 µM in each case. Also, the TGI with SR leukemia, with MDA-MB-435, in the experiment on NCI-H226 lung and in the experiment with KM12 colon was over 100 µM throughout.

Turning to `NC(N)=NCCN1CC2CCC(CC2)C1`, the TGI in the experiment on SF-268 CNS, in the experiment with NCI-H522 lung, in the experiment with LOX IMVI melanoma, in the experiment on RPMI-8226 leukemia, in the experiment with MALME-3M melanoma and with OVCAR-5 ovarian was over 100 µM throughout. In addition, the TGI with HCC-2998 colon, in the experiment on NCI/ADR-RES ovarian, in the experiment on SR leukemia, in the experiment with MDA-MB-435, with NCI-H226 lung and with KM12 colon was over 100 µM each time.

For `O=C1Nc2cccc(Cl)c2/C1=C\c1c(Cl)nc2n1CCS2`, the TGI in the experiment with SF-268 CNS, in the experiment on NCI-H522 lung, in the experiment with LOX IMVI melanoma, with RPMI-8226 leukemia, with K-562 leukemia and in the experiment on MALME-3M melanoma was over 100 µM throughout. The TGI with OVCAR-5 ovarian, with HCC-2998 colon, in the experiment on NCI/ADR-RES ovarian, with SR leukemia, in the experiment on MDA-MB-435 and in the experiment on KM12 colon was over 100 µM in each case.

As to `CN(CCSCCN(C)C(=O)OC(C)(C)C)C(=O)OC(C)(C)C`, the TGI with SF-268 CNS, with NCI-H522 lung, in the experiment with LOX IMVI melanoma, in the experiment with K-562 leukemia, in the experiment with MALME-3M melanoma and with OVCAR-5 ovarian was over 100 µM each time. In addition, the TGI in the experiment on HCC-2998 colon, in the experiment with NCI/ADR-RES ovarian, with SR leukemia, with MDA-MB-435 and in the experiment on KM12 colon was over 100 µM each time.

As to `CC(=O)Nc1sc(Br)cc1S(=O)(=O)c1ccc(Cl)cc1`, the TGI with SF-268 CNS is over 100 µM; in the experiment on NCI-H522 lung, 47.6 µM; in the experiment on RPMI-8226 leukemia, over 100 µM; with K-562 leukemia, 78.3 µM; in the experiment with MALME-3M melanoma it was over 100 µM; in the experiment on OVCAR-5 ovarian it was over 100 µM. In addition, the TGI in the experiment with HCC-2998 colon is 44.2 µM; in the experiment on NCI/ADR-RES ovarian, 52.3 µM; in the experiment on SR leukemia, 50.5 µM; in the experiment with MDA-MB-435 it was over 100 µM; in the experiment on NCI-H226 lung, 57.1 µM; in the experiment on KM12 colon, 45.4 µM.

Regarding `CC1(C)C(C#N)C1C1=C(N2CCOCC2)[C@]2(C)C(OC(=O)c3ccccc3)CC[C@@H]2C1` (some centres undefined), the TGI with SF-268 CNS, with NCI-H522 lung, with K-562 leukemia, with MALME-3M melanoma, in the experiment on OVCAR-5 ovarian and in the experiment on HCC-2998 colon was over 100 µM each time. Besides, the TGI in the experiment with NCI/ADR-RES ovarian, in the experiment on SR leukemia, with MDA-MB-435, in the experiment on NCI-H226 lung and with KM12 colon was over 100 µM throughout.

Turning to `Fc1ccc2c(c1)nc1n2C(c2c(Cl)cccc2Cl)SC1` (centres undefined), the TGI in the experiment with SF-268 CNS worked out at 29.6 µM; with NCI-H522 lung it was 28.7 µM; in the experiment on LOX IMVI melanoma it was 28.2 µM; with RPMI-8226 leukemia it was 87.7 µM; in the experiment with MALME-3M melanoma it was 25.6 µM; in the experiment on OVCAR-5 ovarian, 28.9 µM. Besides, the TGI in the experiment on HCC-2998 colon is 29.9 µM; in the experiment with NCI/ADR-RES ovarian, 27.7 µM; in the experiment with SR leukemia, over 100 µM; in the experiment with MDA-MB-435 it was 25 µM; in the experiment on NCI-H226 lung it was 37.7 µM; in the experiment on KM12 colon, 25.8 µM.

On to `CC(C)(C)OC(=O)N(CCCCN(CCCNC(=O)C(F)(F)F)C(=O)OC(C)(C)C)CCCNC(=O)C(F)(F)F`, for which the TGI in the experiment with SF-268 CNS, in the experiment with NCI-H522 lung, with LOX IMVI melanoma, in the experiment on RPMI-8226 leukemia, with K-562 leukemia and in the experiment on OVCAR-5 ovarian was over 100 µM each time. Further, the TGI in the experiment on HCC-2998 colon, with NCI/ADR-RES ovarian, with SR leukemia, in the experiment on MDA-MB-435, in the experiment with NCI-H226 lung and in the experiment on KM12 colon was over 100 µM each time.

Source of the values: PubChem BioAssay (NCI).
